Experimental data published in patent US20090176817A1, “Method of Treatment of Diarrhea-Predominant Irritable Bowel Syndrome in a Subject” (priority 2005, published 2009).
Marks after values point to notes of the source that are not given here.

Columns and labels:
[1] = test system: healthy subjects; test: Study K.241.5012: colonic transit time, healthy young subjects; type: in vivo, human; conditions: mean (SD); for Transit Times, Colon Total: null hypothesis not rejected vs placebo
Description: (§1) The effect of cilansetron on gastric emptying time and colonic transit time has been studied in 1 clinical study in healthy young subjects and 2 studies in elderly subjects. For measurement of gastric emptying time, breath samples for the determination of the ^12C/^13C ratio were taken on the last day of each treatment period immediately after ingestion of a ^13C labeled meal. The patients' breath was collected in separate 15-minute intervals, for four hours in total. ^13CO2 measurements were performed with an isotope ratio mass spectrometer. The half-life (TK) and lag-time (Tlag), which describe the duration of gastric emptying, were used as the primary parameters to evaluate gastric emptying time. In all 3 studies, colonic transit time was measured by administration of radio-opaque markers for the last six days of each treatment period, followed by a single abdominal X-ray image at 24 hours after ingestion of the last set of markers. The numbers of markers within the colon were used to calculate segmental (right colon, left colon, and rectosigmoid) and total colonic transit time.
Study K.241.5013 was a randomized, double-blind, placebo-controlled, 3-way crossover study in 12 healthy male subjects (ITT population), aged 20-27 years. Subjects received cilansetron 4 mg, cilansetron 8 mg, or placebo orally TID for 14 days during each of the treatment periods, with a 14-day washout between periods. The primary efficacy parameter was the total mean colonic transit time during each treatment and the secondary parameters were the segmental colonic transit times and the gastric emptying measurements. A one-sided Dunnett t-test procedure was used to compare efficacy parameters between the cilansetron and placebo treatments.

[2] = test system: healthy subjects; test: Study S.241.2.104: gastric visceral perception (barostat); type: in vivo, human
Procedure: The effect of cilansetron on gastric perception was evaluated in a randomized, double-blind, placebo-controlled, parallel-group study in 44 male and female healthy subjects (ITT population; 22 subjects received placebo and 22 received 8 mg cilansetron), aged 19-43 years. Subjects received cilansetron 8 mg TID orally for 7 days and gastric distension tests were done at baseline (Day 1, prior to dosing) and poststudy (Day 8). An electronic barostat was used to produce isobarometric distensions (starting from 2 mmHg, progressive distensions in 2 mmHg increments were performed every 2 minutes until gastric pain occurred or an upper limit of 20 rnrnHg was reached) and isovolumetric distensions (starting from an initial volume of 200 mL, progressive distensions in 100 mL increments were performed every 2 minutes until gastric pain occurred or an upper limit of 1100 mL was reached). The primary efficacy parameter was the difference in pain threshold from baseline to poststudy, measured by the amount of distension pressure inducing gastric pain. Secondary parameters were the mean distension pressure/volume inducing the first feelings of gastric sensation and gastric discomfort, and changes in bowel habits over the treatment period. A 2-sample t-test was used to compare baseline-adjusted pain threshold and other secondary efficacy parameters between cilansetron and placebo treatments.

[3] = test system: CYP2A6, CYP2B6, CYP2C9, CYP2D6, and CYP2E1
Procedure: The CYP mRNA induction potentials of cilansetron and its two main metabolites, (4S)-hydroxy and (4R)-hydroxy cilansetron, were determined in human hepatocytes and compared to three model inducers, 3-methylcholantrene, phenobarbital, and rifampin.

[4] = test system: healthy, elderly subjects; test: Study K.241.5014: gastric emptying time, elderly, 8 mg TID; type: in vivo, human; conditions: 8 mg TID oral 14 days, mean (SD)
Description: as §1
Studies K.241.5013 and K.241.5014 were randomized, double-blind, placebo-controlled, 2-way crossover studies in 8 healthy male and female elderly subjects, each (ITT population, aged 64-83 years in K.241.5013 and 66-84 years in K.241.5014). […]

[5] = human, in vivo
Procedure: Subjects were randomized to receive a cilansetron 8 mg capsule after an overnight fast and a cilansetron 8 mg capsule after a high-fat breakfast during the two treatment periods, with a 3-day washout between periods. Serial blood sampling and urine collection was performed up to 24 hours following each dose, and cilansetron pharmacokinetic parameters were evaluated.

[6] = 8 mg TID oral 7 days, Day 8, arith. mean
[7] = 8 mg TID oral 7 days, arith. mean
[8] = 8 mg TID oral 7 days, baseline-adjusted, 2-sample t-test, significant (p < 0.01)

Cc1nccn1C[C@H]1CCc2c(c3cccc4c3n2CCC4)C1=O [Cilansetron, (R)-(−)-4,5,6,8,9,10-hexahydro-10-[(2-methyl-1H-imidazol-1-yl)methyl]-11H-pyrido-[3,2,1-jk]-carbazol-11-one]
Transit Times, Colonic Segments Left ([1]; 4 mg TID oral 14 days): 24.2 (12.9) hours | Transit Times, Colonic Segments Rectosigmold ([1]; 4 mg TID oral 14 days): 15.8 (13.5) hours | Transit Times, Colonic Segments Right ([1]; 4 mg TID oral 14 days): 9.4 (9.5) hours | Transit Times, Colon Total ([1]; 4 mg TID oral 14 days): 49.4 (24.6)^a hours | Transit Times, Colonic Segments Left ([1]; 8 mg TID oral 14 days): 25.8 (16.7) hours | Transit Times, Colonic Segments Rectosigmold ([1]; 8 mg TID oral 14 days): 16.2 (11.9) hours | Transit Times, Colonic Segments Right ([1]; 8 mg TID oral 14 days): 11.8 (13.9) hours | Transit Times, Colon Total ([1]; 8 mg TID oral 14 days): 53.8 (28.5)^a hours | Mean gastric pain threshold raised vs baseline ([2]; 8 mg TID 7 days): 1.9 mmHg | Pressure first producing gastric discomfort, Poststudy [2, 6]: 11.9 mmHg | Pressure first producing gastric pain, Poststudy [2, 6]: 15.4 mmHg | Pressure first producing gastric sensation, Poststudy [2, 6]: 8.9 mmHg | Volume first producing gastric pain, Poststudy [2, 6]: 764 mL | Pressure first producing gastric discomfort, Change from Baseline [2, 7]: 0.9 mmHg | Pressure first producing gastric pain, Change from Baseline [2, 7]: 1.9 mmHg | Pressure first producing gastric sensation, Change from Baseline [2, 7]: 0.9 mmHg | Volume first producing gastric pain, Change from Baseline [2, 7]: 77 mL | Volume first producing gastric pain, Difference cilansetron versus placebo ([2]; 8 mg TID oral 7 days, baseline-adjusted, 2-sample t-test): -18 mL | Pressure first producing gastric discomfort, Difference cilansetron versus placebo [2, 8]: 2.2 mmHg | Pressure first producing gastric pain, Difference cilansetron versus placebo [2, 8]: 2.8 mmHg | Pressure first producing gastric sensation, Difference cilansetron versus placebo [2, 8]: 2.1 mmHg | Gastric discomfort threshold raised ([2]; in vivo): 0.9 mmHg | Gastric pain threshold mean increase vs placebo ([2]; in vivo): 2.8 mmHg | Gastric sensation threshold raised ([2]; in vivo): 0.9 mmHg | Mean volume to reach gastric pain threshold raised ([2]; in vivo): 77.3 mL | Gastric discomfort threshold treatment increase ([2]; vs placebo): 2.2 mmHg | Gastric sensation threshold treatment increase ([2]; vs placebo): 2.1 mmHg | Volume difference between treatments ([2]; vs placebo): -18.0 mL | Inductive effect on other CYP isozymes [3]: did not show an inductive effect | gastric emptying time T½ [4]: 166 (18) min | gastric emptying time Tlag ([4]; significant vs placebo (p < 0.05)): 114 (18)* min | CL/F ([5]; 8 mg): 2698 (77) mL/min | % Dose (urine) ([5]; male): 0.21 (91) % | AUC (0-last) ratio fed/fasted ([5]; male): 108% | AUC(0-inf) ratio fed/fasted ([5]; male): 104% | Cmax ratio fed/fasted ([5]; male): 79% | AUC(0-inf) ([5]; male, 8 mg): 77.6 (66) ng · h/mL | AUC(0-last) ([5]; male, 8 mg): 72.8 (72) ng · h/mL | CLr ([5]; male, 8 mg): 3.86 (90) mL/min | Cmax ([5]; male, 8 mg): 31.7 (58) ng/mL | Cmax decrease with high-fat meal ([5]; male, 8 mg): 21% | Tmax ([5]; male, 8 mg): 1.00 (0.50, 2.00) h | T½ ([5]; male, 8 mg): 1.43 (40) h | Vz/F ([5]; male, 8 mg): 309 (76) L
